Assay results as given in patent publication US20090163521A1, “Novel Pyrazolopyrimidinone Derivatives” (ORCHID RESEARCH LABORATORIES LIMITED, priority 2005, published 2009).

Key:
MCF-7 = test: DTP human tumor cell line screen, MCF-7; type: cell-based; details: 100 μM; 48 hours; percent growth of control
Method: The current assay utilizes a 384 well plate format and fluorescent staining technologies resulting in greater screening capacity for testing of synthetic samples.
The cell lines of the cancer-screening panel are grown in RPMI 1640 medium containing 5% fetal bovine serum and 2 mM L-glutamine. For a typical screening experiment, cells are inoculated into 96 well microtiter plates in 100 μL. After cell inoculation, the micro-titer plates are incubated at 37° C., 5% CO2, 95% air and 100% relative humidity for 24 h prior to addition of experimental drugs. The cells are plated a densities of 5000 cells/well (MCF7), 1000 cells/well (NCI-H460), and 7500 cells/well (SF-268) to allow for varying doubling time of the cell lines. Each plate contains all three-cell lines, a series of dilutions of standard agents, total kill wells and appropriate controls. Plates are incubated under standard conditions for 24 hours prior to addition of experimental compounds or extracts.
Experimental compounds are solubilized in dimethyl sulfoxide (DMSO) at 400-times the desired maximum test concentration (maximum final DMSO concentration of 0.25%) and stored frozen. Compounds are then diluted with complete media with 0.1% gentamicin sulfate (5 μl of test sample in 100% DMSO is added to 565 μl of complete medium). 20 μl of this solution is then dispensed into test wells containing 50 μl of cell suspension to yield a test concentration of 1.00E-04M.
After compound addition, plates are incubated at standard conditions for 48 hours, 10 μl/well Alamar Blue is added and the plates are incubated for an additional 4 hours. Fluorescence is measured using an excitation wavelength of 530 nm and an emission wavelength of 590 nm.
Percent growth is calculated on a plate-by-plate basis for test wells relative to control wells. Percent Growth is expressed as the ratio of fluorescence of the test well to the average fluorescence of the control wells ×100.

Rat Paw Edema model = test: Carrageenan induced paw edema test in rat; type: in vivo; details: 5 mg/kg b. wt., p.o.; 3 hours after carrageenan
Method: The carrageenan paw edema test was performed as described by Winter et al (Proc. Soc. Exp. Biol. Med, 111, 544, 1962). Male wistar rats were selected with body weights equivalent within each group. The rats were fasted for eighteen hours with free access to water. The rats were dosed orally with the test compound suspended in vehicle containing 0.25% carboxymethylcellulose and 0.5% Tween 80. The control rats were administered with vehicle alone. After an hour, the rats were injected with 0.1 ml of 1% Carrageenan solution in 0.9% saline into the sub-plantar surface of the right hind paw. Paw volume was measured using digital plethysmograph before and after 3 hours of carrageenan injection. The average of foot swelling in drug treated animals was compared with that of control animals. Anti-inflammatory activity was expressed as the percentage inhibition of edema compared with control group [Arzneim-Forsch/Drug Res., 43 (1), 1, 44-50, 1993; Ottemess and Bliven, Laboratory Models for Testing NSAIDs, In Non-Steroidal Anti-Inflammatory Drugs, (J. Lombardino, ed. 1985)].

TNF-α = test: In vitro measurement of TNF-α in LPS-stimulated human PBMC; type: cell-based; details: LPS 1 μg/ml, 18 h
Method: This assay determines the effect of test compounds on the production of TNF α in human Peripheral Blood Mononuclear Cells (PBMC). Compounds were tested for their ability to inhibit the activity of TNF α in human PBMC. PBMC were isolated from blood (from healthy volunteers) using BD Vacutainer CPT™ (Cell preparation tube, BD Bio Science) and suspended in RPMI medium (Physiol. Res. 52: 593-598, 2003). The test compounds were pre-incubated with PBMC (0.5 million/incubation well) for 15 minutes at 37° C. and then stimulated with Lipopolysaccharide (Escherichia coli: B4; 1 μg/ml) for 18 h at 37° C. in 5% CO2. The levels of TNFα in cell culture medium were estimated using enzyme linked Immunosorbent assay performed in a 96 well format as per the procedure of the manufacturer (Cayman Chemical, Ann Arbor, USA).

## CSc1ccc(-c2nc3[nH]nc(N)c3c(=O)n2-c2ccc(C)c(C)c2)cc1 [Example 2, 3-amino-5-(3,4-dimethylphenyl)-6-[4-(methylthio)phenyl]-1,5-dihydro-4H-pyrazolo[3,4-d]pyrimidin-4-one]
MCF-7
  % T/C Breast (MCF-7): 31%
Rat Paw Edema model
  Rat Paw Edema model % Inhibition: 30.52 ± 10.3%
TNF-α
  inhibition at 10 µM: 53.4%
